Laboratory results as given in PubChem BioAssay (NCI).
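Growth conditions: 96-well plates. Treatment: test compound, 48 hours, 5 concentrations. Analysis: linear interpolation between bracketing concentrations; unreached endpoints set to highest concentration. GI50 marks 50% less growth. TGI: concentration producing complete growth inhibition.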

Experiments:
Test in all cases: DTP human tumour cell line panel, 48 h
CAKI-1 renal = system: CAKI-1 renal
KM12 colon = system: KM12 colon
HT29 colon = system: HT29 colon
CCRF-CEM leukemia = system: CCRF-CEM leukemia
HCT-116 colon = system: HCT-116 colon
786-0 renal = system: 786-0 renal
U251 CNS = system: U251 CNS
HOP-92 NSCLC = system: HOP-92 NSCLC
OVCAR-3 ovarian = system: OVCAR-3 ovarian
NCI-H460 lung = system: NCI-H460 lung

Row | SMILES | GI50 (CAKI-1 renal) [µM] | TGI (CAKI-1 renal) [µM] | GI50 (KM12 colon) [µM] | TGI (KM12 colon) [µM] | GI50 (HT29 colon) [µM] | TGI (HT29 colon) [µM] | GI50 (CCRF-CEM leukemia) [µM] | TGI (CCRF-CEM leukemia) [µM] | GI50 (HCT-116 colon) [µM] | TGI (HCT-116 colon) [µM] | GI50 (786-0 renal) [µM] | TGI (786-0 renal) [µM] | GI50 (U251 CNS) [µM] | TGI (U251 CNS) [µM] | GI50 (HOP-92 NSCLC) [µM] | TGI (HOP-92 NSCLC) [µM] | GI50 (OVCAR-3 ovarian) [µM] | TGI (OVCAR-3 ovarian) [µM] | GI50 (NCI-H460 lung) [µM] | TGI (NCI-H460 lung) [µM]
1 | CCN(CCNc1ccc(C)c2sc3ccccc3c(=O)c12)CC(C)(C)O | 5.35 | 22.4 | 4.23 | 14.1 | 2.68 | 7.84 | 6.95 | 34.5 | 6.62 | 22.6 | 8.31 | 23 | 5.67 | 19.4 | 5.47 | 20.5 | 13.1 | 27.4 | 3.24 | 11.2
2 | O=C(OC[C@H]1O[C@@H](OC(=O)c2cc(O)c(O)c(O)c2)[C@H](OC(=O)c2cc(O)c(O)c(O)c2)[C@@H](OC(=O)c2cc(O)c(O)c(O)c2)[C@@H]1OC(=O)c1cc(O)c(O)c(O)c1)c1cc(O)c(O)c(O)c1 |  | 85.6 |  | 6.65 |  | 73.7 |  | > 100 |  | 16.8 |  | 21.2 |  | 54.3 |  | 37.4 |  | 17.7 |  | 24.8
3 | C[C@]12CC[C@@H]3c4ccc(O)cc4C(O)C[C@H]3[C@@H]1CCC2=O (stereo not given in full) | > 100 | > 100 | > 100 | > 100 | 46.7 | > 100 | > 100 | > 100 | > 100 | > 100 | > 100 | > 100 | > 100 | > 100 | 53.8 | > 100 | > 100 | > 100 | > 100 | > 100
4 | Cc1cc(-c2nnc3n2CCCCC3)c(C)n1-c1ccc(Cl)c(Cl)c1 | 22.3 | > 100 | 16.6 | 32 | 16 | 38.1 | 18.5 | 71.5 | 12.8 | 28.7 | 22.9 | 56.7 | 14.5 | 31.2 | 11.9 | 31.9 | 10.2 | 23.7 | 17.4 | 45.7
5 | c1nnc(NCNc2nncs2)s1 |  | > 100 |  | > 100 |  | > 100 |  | > 100 |  | > 100 |  | > 100 |  | > 100 |  | > 100 |  | > 100 |  | 83.6
6 | O=C1c2ccccc2-n2c1nc1ccccc1c2=O |  | 42.3 |  | > 67.1 |  | 51.2 |  | > 100 |  | 79.6 |  | > 100 |  | 37.5 |  | > 100 |  | 30.2 |  | 12
7 | COc1ccc(Cl)cc1Nc1nc(C(F)(F)F)ccc1C(=O)N/N=C/c1cc(OC)c(OC)c(OC)c1 | 1.61 | 4.98 | 3.55 | 20.8 | 3.73 | 13.2 | 1.27 | > 100 | 2.41 | 7.66 | 1.78 | 3.68 | 1.75 | 15.1 | 2.09 | 7.56 | 0.449 | > 100 | 2.68 | 10.1
8 | COc1ccc(C2CC(n3nnnc3-c3ccccc3)=NN2)cc1 (stereo not given) | 0.38 | 2.98 | 0.617 | 13.6 | 2.82 | 17.9 | 0.499 | 51.1 | 4.87 | 22.3 | 4.61 | 37.3 | 9.88 | 35.9 | 11.6 | 42.6 | 3.05 | 12 | 2.84 | 13.7
9 | Oc1ccccc1-c1nc2c3ccccc3c3ccccc3c2[nH]1 | 1.67 | 9.44 | 4.32 | 14.1 | 14 | 27 | 4.6 | 16.8 | 10.5 | 22.3 | 4.67 | 13.6 | 10.5 | 22.2 | 1.55 | 6.48 | 11.1 | 23.1 | 3.39 | 12.1
10 | COC(=O)CCCCCN=Cc1c(O)c(O)c(C(C)C)c2cc(C)c(-c3c(C)cc4c(C(C)C)c(O)c(O)c(C=NCCCCCC(=O)OC)c4c3O)c(O)c12 | 6.17 | > 32.5 | 1.28 | > 32.5 | 1.29 | > 32.5 | 0.946 | 11.1 | 1.23 | > 32.5 | 1.77 | 14.7 | 1 | 5.6 | 0.797 | 2.88 | 1.27 | > 32.5 | 1.28 | 8.42
11 | COc1cc2nc(-c3ccc(C(F)(F)F)cc3)cc(OCCCN3CCCCC3)c2cc1OC | 0.272 | 5.05 | 2.92 | 26.9 | 0.415 | 2.52 | 1.83 | 10.6 | 0.429 | 11.6 | 2.17 | 6.59 | 1.1 | 14.8 | 0.678 | 7.08 | 2.44 | 15.4 | 0.595 | 11.9
12 | C[N+]1(C)C/C(=C\c2ccncc2)C(=O)/C(=C/c2ccncc2)C1 |  | > 100 |  | > 100 |  | > 100 |  | > 100 |  | > 100 |  | > 100 |  | > 100 |  | > 100 |  | > 100 |  | > 100
13 | C=C1C(=O)O[C@H]2C[C@@]3(C)[C@H](O)CCC(=C)[C@@H]3[C@@H](OC(C)=O)[C@H]12 |  | 3.23 |  | 36 |  | 25.9 |  | 2.96 |  | 22.2 |  | 32 |  | > 71.3 |  | 16 |  | 26.9 |  | 25.7
14 | CC(C)(C)NC(=O)[C@H]1C[C@H]2CCCC[C@H]2CN1C[C@@H](O)[C@H](Cc1ccccc1)NC(=O)[C@H](CC(N)=O)NC(=O)c1ccc2ccccc2n1 | 16.4 | 33.1 | 14 | 34.8 | 9.38 | 28.2 | 9.31 | 28 | 17 | > 47.1 | 13.8 | 31.1 | 11.9 | 24.4 | 4.17 | 20 | 13.5 | 33.5 | 12.7 | > 51.4
